Earlier results as cited in US20130281512A1, “AGENTS FOR TREATING DISORDERS INVOLVING MODULATION OF RYANODINE RECEPTORS” (LES LABORATOIRES SERVIER, priority 2012, published 2013).

Assays:
RyR = conditions: cited from earlier work
RyR1 [1] = conditions: mdx mouse model; cited from earlier work
RyR1 [2] = target: T1, RyR1 (Mus musculus, UniProt E9PZQ0); conditions: aged mice; cited from earlier work
T1 construct: RyR1 from aged (24 months) mice is oxidized, cysteine-nitrosylated, and depleted of calstabin1; host or cells: mice (in vivo)

RyR1 [3] = target: T1, RyR1; conditions: extreme exercise, mice; cited from earlier work
RyR2 = conditions: WT and RyR2-S2808D+/+ mice; cited from earlier work

T1 sequence (E9PZQ0 whole entry): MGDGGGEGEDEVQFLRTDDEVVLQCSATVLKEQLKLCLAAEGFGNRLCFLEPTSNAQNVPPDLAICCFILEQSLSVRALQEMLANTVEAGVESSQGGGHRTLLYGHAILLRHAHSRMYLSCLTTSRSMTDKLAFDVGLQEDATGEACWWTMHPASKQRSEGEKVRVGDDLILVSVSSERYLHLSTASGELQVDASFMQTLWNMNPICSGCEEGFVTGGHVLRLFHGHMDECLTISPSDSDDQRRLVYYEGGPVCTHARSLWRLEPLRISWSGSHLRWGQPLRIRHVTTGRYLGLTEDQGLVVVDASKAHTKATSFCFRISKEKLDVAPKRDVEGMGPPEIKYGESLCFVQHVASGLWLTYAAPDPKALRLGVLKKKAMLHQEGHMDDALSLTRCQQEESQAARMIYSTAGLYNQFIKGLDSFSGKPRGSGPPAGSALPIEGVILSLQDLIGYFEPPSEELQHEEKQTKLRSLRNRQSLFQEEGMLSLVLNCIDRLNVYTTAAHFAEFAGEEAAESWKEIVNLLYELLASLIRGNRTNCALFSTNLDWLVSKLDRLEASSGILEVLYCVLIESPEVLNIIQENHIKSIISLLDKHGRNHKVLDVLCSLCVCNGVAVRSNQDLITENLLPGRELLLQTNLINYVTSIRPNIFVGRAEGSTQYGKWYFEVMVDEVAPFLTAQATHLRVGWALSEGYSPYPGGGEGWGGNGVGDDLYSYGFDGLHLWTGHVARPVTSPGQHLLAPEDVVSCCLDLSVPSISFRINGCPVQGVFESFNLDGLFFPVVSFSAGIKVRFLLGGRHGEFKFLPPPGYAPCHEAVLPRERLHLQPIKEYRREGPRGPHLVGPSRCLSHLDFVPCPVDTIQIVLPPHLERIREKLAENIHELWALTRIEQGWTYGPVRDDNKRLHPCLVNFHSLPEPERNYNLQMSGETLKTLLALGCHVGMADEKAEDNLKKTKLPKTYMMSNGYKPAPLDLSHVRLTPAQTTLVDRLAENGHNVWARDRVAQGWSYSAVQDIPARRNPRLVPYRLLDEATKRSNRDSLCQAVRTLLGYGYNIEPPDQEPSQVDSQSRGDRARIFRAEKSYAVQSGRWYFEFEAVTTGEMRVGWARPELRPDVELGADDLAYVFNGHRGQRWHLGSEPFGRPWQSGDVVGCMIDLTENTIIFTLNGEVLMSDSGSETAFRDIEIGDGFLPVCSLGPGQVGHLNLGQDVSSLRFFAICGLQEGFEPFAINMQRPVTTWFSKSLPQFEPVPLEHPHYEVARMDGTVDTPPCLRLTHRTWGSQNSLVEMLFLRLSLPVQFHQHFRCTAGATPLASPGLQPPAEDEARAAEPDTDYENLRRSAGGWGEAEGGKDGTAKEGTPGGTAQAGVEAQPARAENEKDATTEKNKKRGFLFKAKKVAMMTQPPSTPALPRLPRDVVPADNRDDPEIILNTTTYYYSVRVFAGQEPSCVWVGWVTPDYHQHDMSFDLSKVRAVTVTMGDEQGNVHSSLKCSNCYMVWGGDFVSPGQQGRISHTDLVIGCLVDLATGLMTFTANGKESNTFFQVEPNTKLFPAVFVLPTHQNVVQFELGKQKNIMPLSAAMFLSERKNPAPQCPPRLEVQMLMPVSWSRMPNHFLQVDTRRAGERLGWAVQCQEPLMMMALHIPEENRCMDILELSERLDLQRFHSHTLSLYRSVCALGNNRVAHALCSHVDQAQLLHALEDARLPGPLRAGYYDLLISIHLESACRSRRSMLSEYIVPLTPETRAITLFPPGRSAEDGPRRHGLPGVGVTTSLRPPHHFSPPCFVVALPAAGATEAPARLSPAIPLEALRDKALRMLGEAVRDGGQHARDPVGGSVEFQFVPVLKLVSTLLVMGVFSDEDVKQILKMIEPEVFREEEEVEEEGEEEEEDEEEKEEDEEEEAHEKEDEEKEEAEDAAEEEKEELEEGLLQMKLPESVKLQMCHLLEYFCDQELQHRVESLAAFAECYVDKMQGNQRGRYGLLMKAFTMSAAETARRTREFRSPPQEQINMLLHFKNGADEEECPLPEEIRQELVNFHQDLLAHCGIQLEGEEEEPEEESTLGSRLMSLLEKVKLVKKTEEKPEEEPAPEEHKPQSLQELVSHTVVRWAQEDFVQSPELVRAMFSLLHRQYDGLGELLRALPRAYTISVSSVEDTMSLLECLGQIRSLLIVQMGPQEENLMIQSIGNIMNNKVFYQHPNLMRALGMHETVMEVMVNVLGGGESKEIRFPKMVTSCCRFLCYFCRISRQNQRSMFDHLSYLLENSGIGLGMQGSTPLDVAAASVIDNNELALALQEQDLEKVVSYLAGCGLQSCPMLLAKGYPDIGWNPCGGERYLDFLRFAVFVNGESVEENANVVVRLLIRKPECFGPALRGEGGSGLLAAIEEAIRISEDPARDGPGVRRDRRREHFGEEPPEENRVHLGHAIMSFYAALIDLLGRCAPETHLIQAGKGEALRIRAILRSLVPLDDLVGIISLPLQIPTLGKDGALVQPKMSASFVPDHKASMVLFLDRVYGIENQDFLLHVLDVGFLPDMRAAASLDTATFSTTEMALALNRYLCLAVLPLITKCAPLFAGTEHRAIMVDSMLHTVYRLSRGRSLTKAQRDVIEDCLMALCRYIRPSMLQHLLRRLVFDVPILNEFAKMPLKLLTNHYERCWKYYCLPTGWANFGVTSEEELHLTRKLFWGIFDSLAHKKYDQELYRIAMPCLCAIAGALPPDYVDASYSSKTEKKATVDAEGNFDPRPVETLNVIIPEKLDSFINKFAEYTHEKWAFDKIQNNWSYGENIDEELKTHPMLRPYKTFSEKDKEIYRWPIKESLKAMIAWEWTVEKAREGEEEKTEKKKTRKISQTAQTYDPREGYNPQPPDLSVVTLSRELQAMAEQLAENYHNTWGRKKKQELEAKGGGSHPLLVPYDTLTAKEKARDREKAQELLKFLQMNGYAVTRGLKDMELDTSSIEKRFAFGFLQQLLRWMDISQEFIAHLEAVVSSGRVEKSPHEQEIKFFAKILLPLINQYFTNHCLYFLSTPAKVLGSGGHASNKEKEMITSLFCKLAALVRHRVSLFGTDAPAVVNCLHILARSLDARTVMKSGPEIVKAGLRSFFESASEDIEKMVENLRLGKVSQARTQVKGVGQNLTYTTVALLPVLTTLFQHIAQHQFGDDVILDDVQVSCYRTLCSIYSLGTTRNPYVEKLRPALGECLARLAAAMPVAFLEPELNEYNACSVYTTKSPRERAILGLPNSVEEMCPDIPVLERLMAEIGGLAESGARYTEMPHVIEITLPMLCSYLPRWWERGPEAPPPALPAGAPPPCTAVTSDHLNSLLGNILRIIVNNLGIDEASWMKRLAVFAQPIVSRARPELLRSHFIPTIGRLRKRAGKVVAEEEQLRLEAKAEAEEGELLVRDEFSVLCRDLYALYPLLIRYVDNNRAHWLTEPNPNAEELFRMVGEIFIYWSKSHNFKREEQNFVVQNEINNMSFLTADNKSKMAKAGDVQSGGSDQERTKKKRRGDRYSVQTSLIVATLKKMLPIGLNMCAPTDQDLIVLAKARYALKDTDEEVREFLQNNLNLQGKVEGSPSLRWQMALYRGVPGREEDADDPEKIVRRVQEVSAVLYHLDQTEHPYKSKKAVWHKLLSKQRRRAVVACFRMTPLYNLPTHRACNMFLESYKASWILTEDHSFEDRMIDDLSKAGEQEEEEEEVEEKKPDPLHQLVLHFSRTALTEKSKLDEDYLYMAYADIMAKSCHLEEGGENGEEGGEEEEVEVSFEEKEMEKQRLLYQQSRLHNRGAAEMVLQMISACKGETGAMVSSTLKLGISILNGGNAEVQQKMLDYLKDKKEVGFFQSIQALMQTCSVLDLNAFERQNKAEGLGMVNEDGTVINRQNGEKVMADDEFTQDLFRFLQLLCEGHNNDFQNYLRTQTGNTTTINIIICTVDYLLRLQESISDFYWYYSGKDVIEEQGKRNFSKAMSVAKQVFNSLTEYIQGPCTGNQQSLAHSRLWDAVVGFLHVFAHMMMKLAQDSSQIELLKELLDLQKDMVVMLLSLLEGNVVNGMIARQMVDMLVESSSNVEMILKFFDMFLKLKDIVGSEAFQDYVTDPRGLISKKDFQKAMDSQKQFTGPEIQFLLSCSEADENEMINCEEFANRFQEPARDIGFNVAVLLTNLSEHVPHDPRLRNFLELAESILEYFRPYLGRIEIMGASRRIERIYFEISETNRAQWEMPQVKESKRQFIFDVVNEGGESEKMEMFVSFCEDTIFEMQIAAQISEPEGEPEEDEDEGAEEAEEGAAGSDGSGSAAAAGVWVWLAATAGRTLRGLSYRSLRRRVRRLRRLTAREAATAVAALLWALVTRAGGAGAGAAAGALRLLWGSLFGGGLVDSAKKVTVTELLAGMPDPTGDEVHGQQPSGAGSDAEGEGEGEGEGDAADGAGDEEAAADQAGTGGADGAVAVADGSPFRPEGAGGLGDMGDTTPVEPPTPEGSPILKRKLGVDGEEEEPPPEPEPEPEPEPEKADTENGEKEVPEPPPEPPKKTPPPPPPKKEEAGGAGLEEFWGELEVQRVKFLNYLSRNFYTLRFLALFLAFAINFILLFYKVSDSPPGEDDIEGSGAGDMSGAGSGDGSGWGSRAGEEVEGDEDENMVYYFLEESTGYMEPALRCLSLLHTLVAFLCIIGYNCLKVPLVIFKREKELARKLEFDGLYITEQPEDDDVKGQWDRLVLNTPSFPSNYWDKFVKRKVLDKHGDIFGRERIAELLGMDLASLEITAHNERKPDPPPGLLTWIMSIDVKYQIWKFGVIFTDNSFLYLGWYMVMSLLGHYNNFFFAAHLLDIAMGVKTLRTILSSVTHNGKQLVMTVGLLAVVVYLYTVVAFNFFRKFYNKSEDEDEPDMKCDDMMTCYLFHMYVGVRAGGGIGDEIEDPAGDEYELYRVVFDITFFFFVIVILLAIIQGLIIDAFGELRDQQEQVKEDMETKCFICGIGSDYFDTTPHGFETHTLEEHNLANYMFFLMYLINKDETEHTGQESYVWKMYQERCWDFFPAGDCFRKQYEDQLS
T1 sequence (P26883 2-108 partner limits assumed): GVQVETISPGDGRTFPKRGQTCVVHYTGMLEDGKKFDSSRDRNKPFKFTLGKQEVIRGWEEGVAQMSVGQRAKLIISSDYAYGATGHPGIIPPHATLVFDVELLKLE

SMILES: COc1ccc2c(c1)CN(C)CCS2 [Compound 5107]
- SR Ca2+ leak (RyR; after myocardial ischemia-reperfusion): inhibited
- ventricular arrhythmias, infarct size, and left ventricular remodeling (RyR; at 15 days after reperfusion): reduced
- indices of muscle function (RyR1 [1]): improves
- binding of calstabin1 to RyR1 (RyR1 [2]): stabilized
- intracellular calcium leak (RyR1 [2]): reduced
- reactive oxygen species (ROS) (RyR1 [2]): decreased
- tetanic Ca2+ release, muscle-specific force, and exercise capacity (RyR1 [2]): enhanced
- Ca2+ dependent neutral protease calpain activity and plasma creatinine kinase levels (RyR1 [3]): reduced
- depletion of calstabin1 from the RyR1 complex (RyR1 [3]): prevented
- HF progression (RyR2): reduced
- RyR2-mediated diastolic SR Ca2+ leak (RyR2): inhibited
